The record followed here is patent EP0743064A1, “Leukotriene antagonists for use in the treatment or prevention of alzheimer's disease” (ELI LILLY AND COMPANY, priority 1995, dated 1996).

The target of the assay is T1, binding of tritiated LTB4 to guinea pig lung membranes (Cavia porcellus, UniProt H0VYV8).
T1 construct: contained 25 mg of guinea pig lung membrane protein; from tissue; host or cells: guinea pig lung membranes
Put plainly: biochemical.

Each structure is given as a SMILES string. Structures can show the parent of a compound that is named as a salt.

T1 sequence (H0VYV8 1-348): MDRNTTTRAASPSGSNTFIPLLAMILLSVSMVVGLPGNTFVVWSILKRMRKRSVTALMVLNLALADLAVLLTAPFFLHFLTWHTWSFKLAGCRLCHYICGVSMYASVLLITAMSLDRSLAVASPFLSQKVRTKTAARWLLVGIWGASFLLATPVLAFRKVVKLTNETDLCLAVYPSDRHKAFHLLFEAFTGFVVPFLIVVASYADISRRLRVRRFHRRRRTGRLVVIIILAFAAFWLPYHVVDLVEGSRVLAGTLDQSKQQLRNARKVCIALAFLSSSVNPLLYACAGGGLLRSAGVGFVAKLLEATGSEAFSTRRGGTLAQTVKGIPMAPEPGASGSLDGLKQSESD
Description: The effectiveness of compounds of Formula I to inhibit the binding of tritiated LTB4 to guinea pig lung membranes was determined as follows.
[^3H]-LTB4 Radioligand Binding Assay in Guinea Pig Lung Membranes
The binding reaction was terminated by the addition of 1 mL ice cold wash buffer (25 mM Tris-HCl, pH 7.5) followed immediately by vacuum filtration over Whatman GF/C glass fiber filters using a Brandel (Gaithersburg, MD) 48 place harvester. The filters were washed three times with 1 mL of wash buffer. Retained radioactivity was determined by liquid scintillation counting at 50% counting efficiency using Ready Protein Plus cocktail (Beckman, Fullerton, CA). Nondisplaceable binding was determined in the presence of 1 mM LTB4 and was usually less than 10% of total binding. […] The data reported below is the mean -log Ki, otherwise known as the pKi, for n experiments.

For `CCc1cc(-c2ccc(F)cc2)c(O)cc1OCCCCCC(c1ccc(OCC(=O)N(C)C)cc1)c1nn[nH]n1` (centres unmarked) [Example 86, 1-(4-(Dimethylaminocarbonylmethoxy)phenyl)-1-(1H-tetrazol-5-yl)-6-(2-ethyl-4-(4-fluorophenyl)-5-hydroxyphenoxy)hexane], the Ki (commonly the dissociation constant of the complex between target and ligand, obtained from inhibition or displacement) was 3.8 nM.
For the molecule `CCc1cc(-c2ccc(C(F)(F)F)cc2)c(O)cc1OCCCCCC(C)(C)c1nn[nH]n1` [disodium salt], the Ki is 66.1 nM.
For `CCc1cc(-c2cccc(N(C)C)c2)c(O)cc1OCCCCCC(C)(C)c1nn[nH]n1` [disodium salt] the value was 63.1 nM.
`CCc1cc(-c2ccc(F)cc2)c(O)cc1OCCCCCC(c1ccccc1)c1nn[nH]n1` (centres unmarked) [Example 84, 1-Phenyl-1-(1H-tetrazol-5-yl)-6-(2-ethyl-4-(4-fluorophenyl)-5-hydroxyphenoxy)hexane] had a Ki of 6.31 nM.
For `CCCc1c(OCCCOc2cc(O)c(-c3ccccc3)cc2CC)cccc1Oc1ccccc1C(=O)O` [Example 61, 2-[2-Propyl-3-[3-(2-ethyl-5-hydroxy-4-phenylphenoxy)-propoxy]phenoxy]benzoic acid sodium salt hemihydrate] the value was 14.1 nM.
